The text below walks through data of ChEMBL document CHEMBL5506018, “Discovery and Mechanistic Studies of Dual-Target Hits for Carbonic Anhydrase IX and VEGFR-2 as Potential Agents for Solid Tumors: X-ray, In Vitro, In Vivo, and In Silico Investigations of Coumarin-Based Thiazoles” (J Med Chem, 2024).

Data set [1] addresses T1, Vascular endothelial growth factor receptor 2 (Homo sapiens, UniProt P35968). Briefly: Inhibition of hypoxia induced VEGFR-2 (unknown origin).
Data set [2] has as its target T2, Carbonic anhydrase 1 (Homo sapiens, UniProt P00915).
Description: Inhibition of human CA1 preincubated for 6 hrs by phenol red staining based stopped flow CO2 hydrase assay
Data set [3] deals with PANC-1. In words: Cytotoxicity against human PANC-1 cells under hypoxia condition by MTT assay. The class given is functional, cell-based.
A short description of data set [4]: Cytotoxicity against African green monkey Vero cells under hypoxic condition by MTT assay. As to conditions: African green monkey (Chlorocebus sabaeus).
Data set [5] relates to Ehrlich. As to conditions: dose 5 mg/kg; route ip; time 14 day.
Description: Antitumor activity against mouse EAC cells implanted in Swiss albino mouse assessed as T/C ratio at 5 mg/kg, ip measured on day 5, 10 and 14
The subject of data set [6] is Ehrlich. Briefly: animal or person. As to conditions: Mus musculus, 336 h, read-out: GI.
Data set [7] concerns the target T1, Vascular endothelial growth factor receptor 2. Briefly: Inhibition of VEGFR-2 (unknown origin).
Data set [8] concerns the target T2, Carbonic anhydrase 1. Briefly: Inhibition of human CA1 by stopped flow CO2 hydrase assay.

T2 sequence (P00915 whole entry): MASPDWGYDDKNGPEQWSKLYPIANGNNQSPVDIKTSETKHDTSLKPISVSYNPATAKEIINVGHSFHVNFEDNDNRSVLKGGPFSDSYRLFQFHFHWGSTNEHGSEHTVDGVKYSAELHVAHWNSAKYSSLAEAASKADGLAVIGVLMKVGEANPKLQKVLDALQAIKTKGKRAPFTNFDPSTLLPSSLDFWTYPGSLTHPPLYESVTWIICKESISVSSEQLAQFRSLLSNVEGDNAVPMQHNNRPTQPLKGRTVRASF
T1 sequence (P35968 whole entry): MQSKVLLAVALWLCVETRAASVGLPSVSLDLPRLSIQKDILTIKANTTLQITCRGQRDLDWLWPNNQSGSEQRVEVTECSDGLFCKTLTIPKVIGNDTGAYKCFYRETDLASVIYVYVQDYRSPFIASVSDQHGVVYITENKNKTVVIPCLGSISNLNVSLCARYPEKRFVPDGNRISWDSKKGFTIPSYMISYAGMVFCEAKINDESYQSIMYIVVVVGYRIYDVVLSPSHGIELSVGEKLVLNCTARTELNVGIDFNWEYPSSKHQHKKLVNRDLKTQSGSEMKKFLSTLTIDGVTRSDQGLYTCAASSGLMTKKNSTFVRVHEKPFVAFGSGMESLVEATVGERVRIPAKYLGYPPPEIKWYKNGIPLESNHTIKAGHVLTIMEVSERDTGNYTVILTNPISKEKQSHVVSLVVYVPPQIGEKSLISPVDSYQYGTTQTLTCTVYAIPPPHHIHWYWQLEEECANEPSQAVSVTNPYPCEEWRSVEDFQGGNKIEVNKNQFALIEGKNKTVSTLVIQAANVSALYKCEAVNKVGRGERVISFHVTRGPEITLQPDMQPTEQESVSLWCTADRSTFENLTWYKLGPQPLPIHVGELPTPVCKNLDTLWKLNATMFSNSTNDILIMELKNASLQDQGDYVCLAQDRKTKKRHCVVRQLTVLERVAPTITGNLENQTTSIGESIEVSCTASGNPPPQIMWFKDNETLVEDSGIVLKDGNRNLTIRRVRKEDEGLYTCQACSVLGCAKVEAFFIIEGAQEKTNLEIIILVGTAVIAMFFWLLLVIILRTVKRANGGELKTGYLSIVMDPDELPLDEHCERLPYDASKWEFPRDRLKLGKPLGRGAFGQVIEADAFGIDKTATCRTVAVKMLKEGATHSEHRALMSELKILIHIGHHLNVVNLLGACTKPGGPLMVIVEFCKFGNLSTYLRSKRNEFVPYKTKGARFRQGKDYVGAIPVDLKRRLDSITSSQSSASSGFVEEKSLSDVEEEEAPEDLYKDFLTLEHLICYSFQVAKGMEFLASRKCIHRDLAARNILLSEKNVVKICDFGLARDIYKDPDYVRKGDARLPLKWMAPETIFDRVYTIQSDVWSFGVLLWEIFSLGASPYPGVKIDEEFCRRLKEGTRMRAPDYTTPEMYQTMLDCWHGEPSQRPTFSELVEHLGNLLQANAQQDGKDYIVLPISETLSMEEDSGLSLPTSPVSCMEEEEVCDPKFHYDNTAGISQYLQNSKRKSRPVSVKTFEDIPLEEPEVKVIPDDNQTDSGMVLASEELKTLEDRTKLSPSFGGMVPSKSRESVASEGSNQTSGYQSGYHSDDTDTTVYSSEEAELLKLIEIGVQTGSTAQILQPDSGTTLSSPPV

Take `CCOc1cccc2cc(/C(C)=N/Nc3nc(-c4ccccc4)cs3)c(=O)oc12`: inhibition in data set [1] was half-maximal at 68.6 nM (IC50). In addition, in data set [2], the Ki is above 100 µM.

As to `CCOc1cccc2cc(/C(C)=N/Nc3nc(-c4ccc(F)cc4)cs3)c(=O)oc12`, the midpoint of inhibition in data set [1], the IC50, lay at 32.1 nM. Further, the Ki in data set [2] is above 100 µM.

`CCOc1cccc2cc(/C(C)=N/Nc3nc(-c4cc5cc(Br)ccc5oc4=O)cs3)c(=O)oc12` had a Ki in data set [2] above 100 µM.

The molecule `CCOc1cccc2cc(/C(C)=N/Nc3nc(-c4ccc(OC)cc4)cs3)c(=O)oc12` displayed an IC50 in data set [1] of 34.8 nM. The same molecule had a Ki in data set [2] above 100 µM.

`O=C(CN1C(=O)S/C(=C\c2cccs2)C1=O)c1cc2ccccc2oc1=O`: the inhibition constant (Ki) in data set [2] is above 100 µM.

Take `CCOc1cccc2cc(/C(C)=N/Nc3nc(-c4ccc([N+](=O)[O-])cc4)cs3)c(=O)oc12`: the Ki in data set [2] was above 100 µM.

Molecule `CCOc1cccc2cc(/C(C)=N/Nc3nc(-c4cc5cccc(OCC)c5oc4=O)cs3)c(=O)oc12` registered a Ki in data set [2] above 100 µM.

Turning to `CCOc1cccc2cc(/C(C)=N/Nc3nc(-c4cc5ccc(OC)cc5oc4=O)cs3)c(=O)oc12`, the Ki in data set [2] is above 100 µM.

Turning to `COc1cccc2c1C(=O)c1c(O)c3c(c(O)c1C2=O)C[C@@](O)(C(=O)CO)C[C@@H]3O[C@H]1C[C@H](N)[C@H](O)[C@H](C)O1` [DOXORUBICIN], the results for the IC50 in data set [3] and in data set [4] were 6.9 µM and 8.7 µM, respectively. For the same molecule, the T/C in data set [5] is on record as 40.89. The inhibition in vivo at 5 mg/kg in data set [6] stood at 67%.

`C/C(=N\NC(=S)Nc1ccc(Br)cc1)c1cc2ccccc2oc1=O` came in with an IC50 in data set [7] of 82 nM.

On to `CCOc1cccc2cc(/C(C)=N/Nc3nc(-c4ccc(Br)cc4)cs3)c(=O)oc12`, for which, in data set [2], the Ki was above 100 µM.

In data set [2], `CCOc1cccc2cc(/C(C)=N/Nc3nc(-c4ccc(C)cc4)cs3)c(=O)oc12` showed a Ki above 100 µM.

On to `CCOc1cccc2cc(/C(C)=N/Nc3nc(-c4ccc(Cl)cc4)cs3)c(=O)oc12`, for which, in data set [2], the Ki is above 100 µM.

`Cc1nc(-c2cc3ccccc3oc2=O)ccc1C(=O)/C=C/c1cccs1` gave a Ki in data set [8] of 1100 nM.
